Values joined by “and” are separate entries in the source; they are usually repeats but may differ in a detail not shown here. Equal entries are not always repeated.
Legend:
[1] = Effect of storage (dwell time) on efficacy of pre-mixed CaSt suspensions; assay type: biochemical; details: 15 minutes
Method: Efficacy of pre-mixed CaSt suspensions (sonicated and vortexed) was tested, comparing efficacy of immediately prepared suspensions with suspensions having shelf life or dwell time of 90 min, 5 days, and 1 month prior to contact with endotoxin containing solutions.
10 mL SRW was then introduced to the sonicated CaSt mixture. It was then vortexed for 5 seconds to fully incorporate the sonicated CaSt. The mixture was then tested after 15 minutes of interaction to measure the percent decrease of endotoxin.
10 mL SRW was then introduced to the vortexed CaSt mixture. It was then vortexed for 5 seconds to fully incorporate the sonicated CaSt. The mixture was then tested after 15 minutes of interaction to measure the percent decrease of endotoxin.
These mixtures were then tested on the Charles River MCS at a dilution of 1:2000 after 15 minutes of interaction.
Test samples were prepared as described above, sonicated and vortexed, but were subjected to shelf life or dwell time of 90 min, 5 days, and 1 month prior to contact with endotoxin containing solution (SRW). After dwell time exposure, similarly to the immediate mixing test above, 10 mL SRW was then introduced to the sonicated or vortexed CaSt mixture. It was then vortexed for 5 seconds to fully incorporate the sonicated CaSt. The mixture was then tested after 15 minutes of interaction to measure the percent decrease of endotoxin. These mixtures were then tested on the Charles River MCS at a dilution of 1:2000 after 15 minutes of interaction.
*The 1 month shelf life sample was only tested at 0.04 g CaSt and measured the percent removal after 15 minutes of interaction as well as 30 minutes after interaction.

[2] = Animal study: intraperitoneal endotoxin mixed with calcium stearate; assay type: in vivo; details: female rats, 4 days, endotoxin alone: severe toxicity
Method: An animal study was conducted with 30 female rats with weights ranging from 250-300 g and acclimated for 5 days. All rats were dosed with intraperitoneal injections using 18 gauge needles. The rats were broken into 6 groups. A negative control (NC-1) dosed 5 rats with 5 mL of normal saline solution. […] A positive control (PC-1) dosed 5 rats with 2.5 million EU in a 5 mL saline solution. A second positive control (PC-2) was conducted dosing 5 rats with 5 million endotoxin units in a 5 mL normal saline solution. Two experimental test groups were conducted.
The negative control samples also had no toxicity.

[3] = Suture testing in ethanol, cyclohexane, isopropanol with 1% CaSt; assay type: biochemical; details: for Endotoxin Detected: control suture 68.1 EU
Method: Similarly to the testing above, an absorbable suture of the same type, similarly contaminated, was exposed to CaSt in three solvents (ethanol, cyclohexane, isopropanol). The suture was then tested for LPS. […] In presence of CaSt 1% suspension (CaSt could be slightly soluble in the solvents), LPS activity decreased by 75-95%.
Sutures used were 27 inch long pieces of absorbable lactide-glycolide sutures. Endotoxin sources used were Stagnant Rain Water (SRW) and LRW (3980 EU/mL). 7 strands of suture were placed in tubing with endotoxin solution for 10 minutes at a time. The sutures were dried for 20 minutes and then placed in round bottom tubes. […] 1 suture was placed in each tube and vortexed in this solution for approximately 10 seconds. The sutures were removed and allowed to dry for 20 minutes and then placed in round bottom tubes. This was done for 6 sutures. 1 piece of suture, serving as the control, was not submerged in any solutions and placed in test tubes. 3 mL of LAL reagent water was added to each test tube, vortexed vigorously, and then placed in a hot water bath at 37° C. for 1 hour. They were then removed, vortexed vigorously, diluted, and tested on the MCS system.

[4] = Detection of LPS in water in presence of CaSt and EDTA and Tween 20; assay type: biochemical; details: 8330 EU spiked
Method: Further testing was performed with addition of EDTA and Polysorbate 20 reagents to verify permanent removal of LPS/endotoxin activity, by adding EDTA and Polysorbate 20 to the extraction solutions to test for potential recovery of endotoxin activity when introduced to these two substances.
The testing was performed in aqueous solutions with added EDTA and Polysorbate 20, with suspended CaSt present in some solutions in varying quantities. […] The tubes were vortexed for 1 minute and placed in a 37 C bath for 1 hour. The tubes were removed from the bath and again vortexed for 1 minute. The solutions were diluted and tested for endotoxin using the Kinetic Chromogenic Method for Endotoxin Quantitation, Charles River Laboratories, Charleston S.C. […] These samples were rigorously vortexed and tested using the Kinetic Chromogenic Method for Endotoxin Quantitation, Charles River Laboratories, Charleston S.C.

[5] = 0.02 g CaSt, Sonicated, 5 Day dwell time
[6] = 0.02 g CaSt, Sonicated, 90 min dwell time
[7] = 0.02 g CaSt, Sonicated, Immediate Mixing
[8] = 0.02 g CaSt, Vortexed, 5 Day dwell time
[9] = 0.02 g CaSt, Vortexed, 90 min dwell time
[10] = 0.04 g CaSt, Sonicated, 1 Month dwell time
[11] = 0.04 g CaSt, Sonicated, 5 Days dwell time
[12] = 0.04 g CaSt, Sonicated, 90 min dwell time
[13] = 0.04 g CaSt, Sonicated, Immediate Mixing
[14] = 0.04 g CaSt, Vortexed, 5 Days dwell time
[15] = 0.04 g CaSt, Vortexed, 90 min dwell time
[16] = 0.04 g CaSt, Vortexed, Immediate Mixing
[17] = CaSt suspension 0.007 g in 5 mL
[18] = CaSt suspension 0.007 g with 0.1M EDTA and 0.05% Tween20
[19] = CaSt suspension 0.018 g in 5 mL
[20] = CaSt suspension 0.018 g with 0.1M EDTA and 0.05% Tween20
[21] = CaSt suspension 0.028 g in 5 mL
[22] = CaSt suspension 0.028 g with 0.1M EDTA and 0.05% Tween20

## Calcium Stearate
[1]; 0.02 g CaSt in 10 mL LRW, Sonicated, Immediate Mixing with 10 mL SRW, 36,100 EU before
  EU After: 8,960 EU and 10,240 EU
[1]; [5]
  Average Percent Change: 76%
  Percent Endotoxin Removed: 76%
[1]; 0.02 g CaSt, Sonicated, 5 Day dwell time, 37,800 EU before
  EU After: 9,200 EU
[1]; [6]
  Average Percent Change: 61%
  Percent Endotoxin Removed: 58% and 64%
[1]; 0.02 g CaSt, Sonicated, 90 min dwell time, 36,100 EU before
  EU After: 15,120 EU and 12,960 EU
[1]; [7]
  Average Percent Change: 74%
  Percent Endotoxin Removed: 75% and 72%
[1]; [8]
  Average Percent Change: 64%
  Percent Endotoxin Removed: 60% and 68%
[1]; 0.02 g CaSt, Vortexed, 5 Day dwell time, 37,800 EU before
  EU After: 15,120 EU and 12,160 EU
[1]; [9]
  Average Percent Change: 43%
  Percent Endotoxin Removed: 38% and 47%
[1]; 0.02 g CaSt, Vortexed, 90 min dwell time, 36,100 EU before
  EU After: 22,400 EU and 19,280 EU
[1]; 0.02 g CaSt, Vortexed, Immediate Mixing
  Average Percent Change: 32%
[1]; 0.02 g CaSt, Vortexed, Immediate Mixing, 36,100 EU before
  EU After: 29,200 EU and 20,480 EU
[1]; 0.04 g CaSt in 10 mL LRW, Sonicated, Immediate Mixing with 10 mL SRW, 36,100 EU before
  EU After: 5,320 EU and 5,800 EU
[1]; [10]
  Average Percent Change: 50%
  Percent Endotoxin Removed: 49.2% and 50.6%
[1]; [11]
  Average Percent Change: 85%
  Percent Endotoxin Removed: 87% and 83%
[1]; [12]
  Average Percent Change: 81%
  Percent Endotoxin Removed: 83% and 78%
[1]; [13]
  Average Percent Change: 85%
  Percent Endotoxin Removed: 85% and 84%
[1]; 0.04 g CaSt, Sonicated, Mixing after 1 Month dwell time, 14,650 EU before
  EU After: 7,440 EU and 7,240 EU
[1]; 0.04 g CaSt, Sonicated, Mixing after 5 Days dwell time, 37,800 EU before
  EU After: 5,040 EU and 6,560 EU
[1]; 0.04 g CaSt, Sonicated, Mixing after 90 min dwell time, 36,100 EU before
  EU After: 6,168 EU and 8,000 EU
[1]; [14]
  Average Percent Change: 75%
  Percent Endotoxin Removed: 76% and 74%
[1]; [15]
  Average Percent Change: 54%
  Percent Endotoxin Removed: 53% and 54%
[1]; [16]
  Average Percent Change: 44%
  Percent Endotoxin Removed: 45% and 43%
[1]; 0.04 g CaSt, Vortexed, Immediate Mixing, 36,100 EU before
  EU After: 19,840 EU and 20,480 EU
[1]; 0.04 g CaSt, Vortexed, Mixing after 5 Days dwell time, 37,800 EU before
  EU After: 9,080 EU and 9,760 EU
[1]; 0.04 g CaSt, Vortexed, Mixing after 90 min dwell time, 36,100 EU before
  EU After: 17,120 EU and 16,460 EU
[2]; T-1: 2,500,000 EU + 0.2 g Calcium Stearate in 5.0 mL normal saline dosed IP
  Results (toxicity observed): No Toxicity
[2]; T-1: 2,500,000 EU + 0.2 g Calcium Stearate in 5.0 mL normal saline dosed IP, listed as calcium stearate
  Results (toxicity observed): no toxicity or adverse effects
[2]; T-2: 5,000,000 EU + 0.2 g Calcium Stearate in 5.0 mL normal saline dosed IP
  Results (toxicity observed): No Toxicity
[2]; T-2: 5,000,000 EU + 0.2 g Calcium Stearate in 5.0 mL normal saline dosed IP, listed as calcium stearate
  Results (toxicity observed): no toxicity or adverse effects
[3]; CaSt 1% suspension in ethanol, cyclohexane, isopropanol
  LPS activity decreased by: 75-95%
[3]; suture in Cyclohexane w/1% Calcium Stearate (0.0858 g) vs. control suture
  Change in Endotoxin Level: −94.1%
[3]; suture in Cyclohexane w/1% Calcium Stearate (0.0858 g)
  Endotoxin Detected: 4.02 EU
[3]; suture in Ethanol w/1% Calcium Stearate (0.0827 g) vs. control suture
  Change in Endotoxin Level: −77.9%
[3]; suture in Ethanol w/1% Calcium Stearate (0.0827 g)
  Endotoxin Detected: 15.06 EU
[3]; suture in Isopropanol w/1% Calcium Stearate (0.0841 g) vs. control suture
  Change in Endotoxin Level: −75.6%
[3]; suture in Isopropanol w/1% Calcium Stearate (0.0841 g)
  Endotoxin Detected: 16.59 EU
[4]; [17]
  Endotoxin Detected: 3995 EU
  Percent detected Endotoxin: 48.0%
[4]; [18]
  Endotoxin Detected: 5050 EU
  Percent detected Endotoxin: 60.6%
[4]; [19]
  Endotoxin Detected: 1487.5 EU
  Percent detected Endotoxin: 17.9%
[4]; [20]
  Endotoxin Detected: 1545 EU
  Percent detected Endotoxin: 18.5%
[4]; [21]
  Endotoxin Detected: 235 EU
  Percent detected Endotoxin: 2.8%
[4]; [22]
  Endotoxin Detected: 255 EU
  Percent detected Endotoxin: 3.1%

— patent publication US20180077929A1, “METHODS AND SYSTEMS FOR TREATING MEDICAL DEVICES AND FLUIDS” (priority 2016, published 2018)
